Molecules are shown by their SMILES.

As for `*/C=C/C1CCC(*)C1` (repeat unit), the glass transition temperature is 31.00 °C. With `*C(=O)c1ccc2c(c1)C(=O)N(c1cccc(C(=O)c3ccc(C(=O)c4cccc(N5C(=O)c6ccc(*)cc6C5=O)c4)cc3)c1)C2=O` (repeat unit) the figure was 240.00 °C. The value for `*C(=O)c1ccc2c(c1)C(=O)N(c1cccc(C(=O)c3cccc(N4C(=O)c5ccc(*)cc5C4=O)c3)c1)C2=O` (repeat unit) was 242.00 °C; that for `*C(=O)c1ccc2c(c1)C(=O)N(c1cccc(C(O[Si](C)(C)O[Si](C)(C)O[Si](C)(C)C)c3cccc(N4C(=O)c5ccc(*)cc5C4=O)c3)c1)C2=O` (repeat unit) was 235.00 °C. Regarding `*CCCCCCCCCCc1nc2ccc(-c3ccc4nc(*)oc4c3)cc2o1` (repeat unit), the glass transition temperature worked out at 64.00 °C.

On to `*CCCCCCCCCc1nc2ccc(-c3ccc4nc(*)oc4c3)cc2o1` (repeat unit), for which the glass transition temperature came out at 64.00 °C. The value for `*CCCCCCCCc1nc2ccc(-c3ccc4nc(*)oc4c3)cc2o1` (repeat unit) was 223.50 °C; that for `*CCCCCCCCc1nc2ccc(-c3ccc4nc(*)sc4c3)cc2s1` (repeat unit) was 238.00 °C; that for `*CCCCCCCc1nc2ccc(-c3ccc4nc(*)oc4c3)cc2o1` (repeat unit) was 85.00 °C. The molecule `*Oc1ccc(C(=O)c2cccc(C(=O)c3ccc(*)c(CC)c3)c2)cc1CC` (repeat unit) returned a glass transition temperature of 126.00 °C. The value for `*Oc1ccc(C(=O)c2cccc(C(=O)c3ccc(Oc4cccc(Cc5cccc(*)c5)c4)cc3)c2)cc1` (repeat unit) was 114.00 °C; that for `*c1ccc(-c2ccc(-c3c(-c4ccccc4)nc4ccc(-c5ccc6nc(-c7ccccc7)c(*)c(-c7ccccc7)c6c5)cc4c3-c3ccccc3)cc2)cc1` (repeat unit) was 405.00 °C; that for `*c1ccc(-c2ccc(-c3ccc4c(c3)C(CCCCCCCC)(CCCCCCCC)c3cc(-c5ccc(*)s5)ccc3-4)s2)cn1` (repeat unit) was 127.50 °C. On to `*c1ccc(-c2nc3cc(S(=O)(=O)c4ccc5nc(*)c(-c6ccccc6)nc5c4)ccc3nc2-c2ccccc2)cc1` (repeat unit), for which the glass transition temperature came to 277.50 °C. With `*c1ccc(-c2nnc(-c3cccc(-c4nnc(*)o4)c3)o2)cc1` (repeat unit) the figure was 278.00 °C; with `*c1ccc(-n2ccc(-c3cccc(-c4ccn(*)n4)c3)n2)cc1` (repeat unit), 75.00 °C.

In turn, `*c1ccc(C2(c3ccc(-c4cc(-c5ccccc5)c5cc(C6(c7ccc8nc(*)cc(-c9ccccc9)c8c7)c7ccccc7C(=O)c7ccccc76)ccc5n4)cc3)c3ccccc3-c3ccccc32)cc1` (repeat unit) had a glass transition temperature of 405.00 °C. For the molecule `*c1ccc(Cc2ccc(-c3nc(-c4cccc(-c5nnc(-c6ccccc6)c(*)n5)n4)nnc3-c3ccccc3)cc2)cc1` (repeat unit), the glass transition temperature came out at 205.00 °C. As for `*c1ccc(OCCCCOc2ccc(-c3nc4ccc(-c5ccc6nc(*)c(-c7ccccc7)nc6c5)cc4nc3-c3ccccc3)cc2)cc1` (repeat unit), the glass transition temperature stood at 240.00 °C. With `*c1ccc(Oc2ccc(-c3cc(-c4cccc(-c5cc(*)c6ccccc6n5)c4)nc4ccccc34)cc2)cc1` (repeat unit) the figure was 268.00 °C; with `*c1ccc(Oc2ccc(-c3cc(-c4ccccc4)c4cc(C5(c6ccc7nc(*)cc(-c8ccccc8)c7c6)c6ccccc6C(=O)c6ccccc65)ccc4n3)cc2)cc1` (repeat unit), 320.00 °C; with `*c1ccc(Oc2ccc(-c3nc4cc(S(=O)(=O)c5ccc6nc(-c7ccccc7)c(*)nc6c5)ccc4nc3-c3ccccc3)cc2)cc1` (repeat unit), 290.00 °C. The value for `*c1ccc2c(c1)C(*)(C)CC2(C)C` (repeat unit) was 215.50 °C; that for `*c1ccc2c(c1)C(=O)N(c1cccc(NC(=O)C(F)(F)C(F)(F)C(F)(F)C(F)(F)C(=O)Nc3cccc(N4C(=O)c5ccc(C(*)(C(F)(F)F)C(F)(F)F)cc5C4=O)c3)c1)C2=O` (repeat unit) was 232.00 °C; that for `*c1ccc2c(c1)C(=O)N(c1cccc(NC(=O)C(F)(F)C(F)(F)C(F)(F)C(F)(F)C(F)(F)C(F)(F)C(=O)Nc3cccc(N4C(=O)c5ccc(C(*)(C(F)(F)F)C(F)(F)F)cc5C4=O)c3)c1)C2=O` (repeat unit) was 218.00 °C. `*c1ccc2c(c1)C(=O)N(c1cccc(Oc3cc(Oc4cccc(N5C(=O)c6ccc(C(*)(C(F)(F)F)C(F)(F)F)cc6C5=O)c4)ccc3P(=O)(c3ccccc3)c3ccccc3)c1)C2=O` (repeat unit) registered a glass transition temperature of 230.00 °C.

`*c1ccc2c(c1)C(=O)N(c1cccc(P(=O)(c3cccc(N4C(=O)c5ccc(C(*)(C(F)(F)F)C(F)(F)F)cc5C4=O)c3)c3cc(C(F)(F)F)cc(C(F)(F)F)c3)c1)C2=O` (repeat unit) returned a glass transition temperature of 247.00 °C.

`*c1ccc2c(c1)C(=O)N(c1cccc3c(N4C(=O)c5ccc(C(*)(C(F)(F)F)C(F)(F)F)cc5C4=O)cccc13)C2=O` (repeat unit) showed a glass transition temperature of 390.00 °C. The value for `*c1ccc2c(c1)C(CCCCCC)(CCCCCC)c1cc(-c3cc(CCCCCC)c(*)cc3CCCCCC)ccc1-2` (repeat unit) was 78.80 °C; that for `*c1ccc2c(c1)C(CCCCCC)(CCCCCC)c1cc(-c3ccc4c(c3)C(CC3=NC(Cc5ccccc5)CO3)(CC3=NC(Cc5ccccc5)CO3)c3cc(*)ccc3-4)ccc1-2` (repeat unit) was 114.00 °C; that for `*c1ccc2c(c1)C(CCCCCCCC)(CCCCCCCC)c1cc(-c3ccc4c(c3)C(c3ccc(-c5nnc(-c6ccc(C(C)(C)C)cc6)o5)cc3)(c3ccc(-c5nnc(-c6ccc(C(C)(C)C)cc6)o5)cc3)c3cc(*)ccc3-4)ccc1-2` (repeat unit) was 213.00 °C.

Consider `*c1ccc2c(c1)Cc1cc(-n3c(=O)c4cc5c(=O)n(*)c(=O)c5cc4c3=O)ccc1-2` (repeat unit), for which the glass transition temperature is 322.00 °C. The value for `*c1ccc2c(c1)Sc1cc(-c3ccc(-c4ccc(*)s4)s3)ccc1N2CCCCCC` (repeat unit) was 140.00 °C; that for `*c1ccc2c3ccc(-c4ccc(-c5ccc(-c6ccc(*)s6)c6nccnc56)s4)cc3n(C(CCCCCCCC)CCCCCCCC)c2c1` (repeat unit) was 116.00 °C; that for `*c1ccc2nc(*)cc(-c3ccccc3)c2c1` (repeat unit) was 415.00 °C. Take `*c1ccc2oc(-c3ccc(-c4nc5cc(C(*)(C(F)(F)F)C(F)(F)F)ccc5o4)cc3)nc2c1` (repeat unit): the glass transition temperature turned out to be 371.50 °C. With `*c1ccc2oc(-c3cccc(-c4nc5cc(C(*)(C(F)(F)F)C(F)(F)F)ccc5o4)n3)nc2c1` (repeat unit) the figure was 329.00 °C. With `*c1ccc2oc(-c3cccc(-c4nc5cc(C(*)(c6ccccc6)C(F)(F)F)ccc5o4)c3)nc2c1` (repeat unit) the figure was 301.00 °C; with `*c1cccc(-c2nc3cc(-c4ccc5c(c4)nc(*)n5C)ccc3[nH]2)c1` (repeat unit), 346.66 °C.

For the molecule `*c1cccc(-c2nc3cc(-c4ccc5nc(*)c(-c6ccc7ccccc7c6)nc5c4)ccc3nc2-c2ccc3ccccc3c2)c1` (repeat unit), the glass transition temperature stood at 317.00 °C. With `*c1cccc(-c2nc3cc4nc(-c5ccccc5)c(*)nc4cc3nc2-c2ccccc2)c1` (repeat unit) the figure was 365.00 °C; with `*c1cccc(-c2nc3ccc(-c4ccc5nc(*)[nH]c5c4)cc3[nH]2)c1` (repeat unit), 420.00 °C. The molecule `*c1cccc(C(=O)c2ccc(Oc3ccc(N4C(=O)c5ccc(Oc6ccc7c(c6)C(=O)N(*)C7=O)cc5C4=O)cc3C(F)(F)F)cc2)c1` (repeat unit) came in with a glass transition temperature of 224.00 °C. The value for `*c1cccc(C(F)(F)C(F)(F)C(*)(F)F)c1` (repeat unit) was 29.00 °C; that for `*c1cccc(C(O[Si](C)(C)O[Si](C)(C)O[Si](C)(C)C)c2cccc(N3C(=O)c4ccc(Oc5ccc6c(c5)C(=O)N(*)C6=O)cc4C3=O)c2)c1` (repeat unit) was 219.00 °C. With `*c1cccc(Cc2cccc(-n3c(=O)c4cc5c(=O)n(*)c(=O)c5cc4c3=O)c2)c1` (repeat unit) the figure was 327.50 °C; with `*c1cccc(N2C(=O)c3ccc(-c4cccc5c4C(=O)N(*)C5=O)cc3C2=O)c1` (repeat unit), 341.00 °C. For `*c1cccc(N2C(=O)c3ccc(P(=O)(c4ccccc4)c4ccc5c(c4)C(=O)N(*)C5=O)cc3C2=O)c1` (repeat unit), the glass transition temperature was found to be 323.00 °C. With `*c1cccc(OCCCCCCCCCCOc2cccc(N3C(=O)c4ccc(-c5cccc6c5C(=O)N(*)C6=O)cc4C3=O)c2)c1` (repeat unit), the glass transition temperature was determined as 127.00 °C.

Regarding `*c1cccc(OCCCCCCOc2cccc(N3C(=O)c4ccc(-c5ccc6c(c5)C(=O)N(*)C6=O)cc4C3=O)c2)c1` (repeat unit), the glass transition temperature amounted to 153.00 °C. The value for `*c1cccc(OCCCOc2cccc(N3C(=O)c4ccc(-c5ccc6c(c5)C(=O)N(*)C6=O)cc4C3=O)c2)c1` (repeat unit) was 184.00 °C. The value for `*c1cccc(Oc2ccc(P(=O)(c3ccccc3)c3ccccc3)c(Oc3cccc(-n4c(=O)c5cc6c(=O)n(*)c(=O)c6cc5c4=O)c3)c2)c1` (repeat unit) was 251.00 °C; that for `*c1cccc(Oc2ccc(P(=O)(c3ccccc3)c3ccccc3)c(Oc3cccc(N4C(=O)c5ccc(-c6ccc7c(c6)C(=O)N(*)C7=O)cc5C4=O)c3)c2)c1` (repeat unit) was 234.00 °C; that for `*c1cccc(P(C)(=O)c2cccc(N3C(=O)c4ccc(NC(=O)OCCOc5ccc(C(c6ccc(OCCOC(=O)Nc7ccc8c(c7)C(=O)N(*)C8=O)cc6)(C(F)(F)F)C(F)(F)F)cc5)cc4C3=O)c2)c1` (repeat unit) was 204.00 °C.

The values above are taken from the PolyMetriX glass transition set.
